Test results as given in patent EP0665834B1, “QUINOLONE AND ACRIDINONE DERIVATIVES FOR THE TREATMENT OF URINARY INCONTINENCE” (AstraZeneca AB, priority 1992, dated 1994).

Tests used:
intestinal smooth muscle = details: Vitolinya et al, 1981; cited from earlier work
cardiovascular system = details: Vitolinya et al, 1981; cited from earlier work
bladder = assay: in vivo oral test in catheterized rats: bladder contraction interval, blood pressure, heart rate; design: species or system Male Wistar rats; details: dosed orally at 3 mg/kg body weight
Protocol: The compound described in Example 1 is active and selective in this test when dosed orally at 3 mg/kg body weight.
Male Wistar rats (400 - 500 g) were anesthetized with 50 mg/kg Nembutal, i.p. For each rat, the abdominal region and the front and back of the neck were shaved and povidone-iodine was applied to the skin. For carotid catheterization, the left carotid artery was exposed via a small ventral cervical incision. The exposed area was flushed with a 2% lidocaine HCl solution to relax the vessel. The catheter, filled with 0.9% saline, was introduced approximately 2.4 cm into the artery so that its tip resided in the aortic arch. The distal end of the catheter was exteriorized at the nape of the neck, filled with heparin (1000 units/ml) and heat sealed. […]
The rats were weighed, orally sham-dosed (dosing needle introduced, but no fluid expelled), and transvesical saline infusion (.18 ml/min) was begun and continued throughout the experiment. Variations in blood pressure, heart rate, intravesical pressure and urine output were recorded on either a Grass Polygraph or a Gould TA4000 recording system. […] At this point, a basal level of each experimental parameter was recorded and the rats were administered by oral gavage the appropriate dose of compound (in a 75% PEG 400 - saline vehicle) in concentrations such that the volume was 1 ml/kg body weight. […]

[1] = test system: guinea pig detrusor strips; assay: in vitro relaxation of guinea pig bladder detrusor strips contracted with 15 mM KCl (first test); type: cell-based, albino Hartley guinea pigs; details: for IC50: Cavia porcellus, 15 mM KCl; for potency: in vitro, in words only
From the text: The actions of compounds of formula I as smooth muscle relaxants useful as therapeutic agents for the treatment of urinary incontinence through their action to open potassium channels and hyperpolarize the membrane potential in the bladder detrusor smooth muscle can be shown using suitably designed in vitro tests, such as the one described following. […] "IC50" is a well understood term and means the concentration of test compound which causes a 50% decrease in the in vitro contraction of the bladder tissue described in the following test.
Hale albino Hartley guinea pigs (450-500g) are sacrificed by carbon dioxide induced asphyxiation and quickly exsanguinated. The lower abdominal cavity is opened and the urinary bladder isolated. The bladder is cleaned of surrounding connective and adipose tissue, and the portion above the ureteral orifices is removed and washed in Krebs-Henseleit buffer solution of the following composition (in mH): NaCl 118.0, KCl 4.7, […] 1.2, KH2PO4 1.2, CaCl2 2.5, NaHCO3 25.0 and d-glucose 11.1. The solution is warmed to 37°C and gassed with 95% O2 and 5% CO2. With vigorous bubbling, the solution should have a pH value close to 7.4.
The dome of the washed bladder is cut off and discarded; the remaining bladder is placed on a gauze in a Petri dish containing the buffer solution. A mid-ventral longitudinal cut is made with scissors to open the bladder. The strips cut from the dome and the base edge are discarded. The remaining detrusor mid-section is cut into two horizontal strips with an approximate width of 2.0 mm. These two strips are further bisected at the mid-dorsal section, creating four strip of similar dimensions. Each strip thus contains both dorsal and ventral portions of the bladder.
The two ends of each individual strip are tied to a glass support rod and a force-displacement transducer (Grass model FR03), respectively, with 4-0 black braided silk suture.
The transducers are connected to a polygraph (Grass model 7E), which is calibrated at 5 mV/cm and the calibration checked for linearity with weights of 5 and 0.5 grams. The analog electrical output signals from the polygraph are digitized by a Modular Instrument Hicro 5000 signal processing system using Biowindow Data Acquisition Software, which is run under the Hicrosoft OS/2 operating system with an IBM-compatible PC.
The detrusor strips on the glass rod are secured in 20 ml tissue baths and allowed to equilibrate under a preload tension of 2 grams. […]
When the tissue relaxes to a steady state after the final washing, 15 mH KCl is again applied. […] The effect of the compound at each dose is expressed as % of the maximum inhibitory response, which is further normalized with respect to the corresponding effect of the compound vehicle control. […]

[2] = chemical stability (no method given); type: physicochemical; details: in words; compared with corresponding compounds wherein R^2 is methyl
[3] = test system: guinea pig detrusor strips; assay: second in vitro test: guinea pig detrusor strips contracted with 80 mM KCl; type: cell-based; details: for potency in the second test (80 mM KCl) compared with the first test (15 mM KCl): guinea pig detrusor strips
Protocol: This second in vitro test is similar to the one described above with regard to tissue preparation and data acquisition. However, the following exceptions are noted. In this second test, the contraction of the detrusor strips during priming and after the equilibration period is achieved with 80 mM instead of 15 mM KCl (total concentration in the bath).
Typical calcium channel blockers like nifedipine, nimodipine, isradipine, and verapamil are able to relax and reduce the myogenic activity of guinea pig detrusor strips in both tests by virtue of their blocking action on calcium channels.

urinary incontinence = details: preliminary clinical trial; Nurse et al, British Journal of Urology (1991); cited from earlier work

Q: Which “blocking of spasmogenic effect of acetylcholine and barium chloride” value (intestinal smooth muscle) does the source give for `CC1=C(C#N)C(c2ccccc2)C2=C(CC(C)(C)CC2=O)N1` (centres unmarked) [3-Cyano-4-phenyl-2,7,7-trimethyl-4,6,7,8-tetrahydro-5(1H)-quinolone] here?
A: capable of blocking the spasmogenic effect

Q: What about the hypotensive properties (cardiovascular system) of the same molecule?
A: hypotensive properties

Q: With `CC1=CC(c2cccc([N+](=O)[O-])c2)C2=C(CCCC2=O)N1` (centres unmarked) [Example 1, 2-Methyl-4-(3-nitrophenyl)-4,6,7,8-tetrahydro-5(1H)-quinolone] as the molecule, how does the activity (bladder) read?
A: active

Q: Which IC50 ([1]; concentration causing 50% decrease in in vitro contraction of bladder tissue) does the source give for `CC1=CC(c2ccc(C(F)(F)F)cc2)C2=C(CCCC2=O)N1` (centres unmarked) [Example 9, 2-Methyl-4-(4-trifluoromethylphenyl)-4,6,7,8-tetrahydro-5(1H)-quinolone] here?
A: 8.11 µM

Q: What does the source list for `O=C1CCCC2=C1C(c1cccc([N+](=O)[O-])c1)C=C(C(F)(F)F)N2` (centres unmarked) [Example 15, 2-Trifluoromethyl-4-(3-nitrophenyl)-4,6,7,8-tetrahydro-5(1H)quinolone]?
A: chemical stability [2]: superior; potency [1]: surprisingly good potency in vitro

Q: Which results are given for `N#Cc1cccc(C2C=C(C(F)(F)F)NC3=C2C(=O)CCC3)c1` (centres unmarked) [Example 39, 2-Trifluoromethyl-4-(3-cyanophenyl)-4,6,7,8-tetrahydro-5(1H)-quinolone]?
A: chemical stability [2]: superior; potency [1]: surprisingly good potency in vitro

Q: Which relaxant activity ([3]; 80 mM KCl, at concentrations as high as 30 µM) does the source give for `CC1(C)Oc2ccc(C#N)cc2C(N2CCCC2=O)C1O` (centres unmarked) [cromakalim] here?
A: insignificant relaxant activity

Q: And the IC50 ([1]; relaxant activity in the first test)?
A: 0.6 to 0.9 µM

Q: What about the “efficacy in treatment of urinary incontinence” value (urinary incontinence) of the same molecule?
A: effective

Q: Which “potency in the second test (80 mM KCl) compared with the first test (15 mM KCl)” value [3] does the source give for `COC(=O)C1=C(C)NC(C)=C(C(=O)OC(C)C)C1c1cccc2nonc12` (centres unmarked) [isradipine] here?
A: more potent in the second test

Q: Which “effect on sustained tension after high KCl stimulation” value ([3]; 80 mM KCl, 300 µM) does the source give for `COc1ccc(Cc2nccc3cc(OC)c(OC)cc23)cc1OC` [papaverine] here?
A: totally abolished

Q: With `COc1ccc(CCN(C)CCCC(C#N)(c2ccc(OC)c(OC)c2)C(C)C)cc1OC` (centres unmarked) [verapamil] as the molecule, how does the “potency in the second test (80 mM KCl) compared with the first test (15 mM KCl)” value [3] read?
A: more potent in the second test
